We go through 3 compounds from KR20140034898A, “헤테로시클릭 술폰아미드 유도체” (노파르티스 아게, priority 2011, dated 2012).

Series [1] deals with BRAF-MEK-ERK cascade [BRAF-MEK-ERK 캐스케이드]. As to the kind of experiment: BRAF-MEK-ERK cascade assay (TR-FRET, recombinant enzymes). It counts as biochemical, human. Particulars: mean ± SEM, n=3; 100 μM ATP; 45 min pre-incubation, 90 min kinase reaction. For orientation: Time-resolved FRET reads energy transfer from a long-lived donor to a nearby acceptor.
The test system of series [2] is A375 cells [A375 세포]. As to the kind of experiment: A375 cell viability assay (XTT). The following applies: Homo sapiens, A-375, 72 h, 3 days after compound addition. It counts as cell-based. Background: Tetrazolium dyes change colour on reduction, which living cells bring about.
Series [3] relates to A375 P-Erk. The experiment in a line: A375 P-Erk (In-Cell-Western). It counts as cell-based. The following applies: A-375; A375 human melanoma cells, 3 h compound treatment, triplicate; 100% inhibition = reference inhibitor at highest test concentration.
A short description of series [4]: Pharmacokinetics in athymic nude rats. It counts as in vivo, rat. Particulars: one-way ANOVA versus Example 1.

With `O=S(=O)(Nc1c(Nc2ccc(I)cc2F)c(F)c(F)c2ccoc12)C1(C[C@@H](O)CO)CC1` (single isomer, unassigned) [실시예 1B], the IC50 (usually the midpoint of a concentration-inhibition curve) in series [1] was 1.6 ± 0.1 nM. For the same compound, the GI50 (commonly the concentration that inhibits growth by half) in series [2] came to 29.6 nM. Also, the EC50 (commonly the concentration needed to bring the measured effect to its halfway point) in series [3] is 15.6 nM. In addition, the “PK parameters compared with Example 1” value in series [4] is “증진된 PK-파라미터”.
The like results for `O=S(=O)(Nc1c(Nc2ccc(I)cc2F)c(F)c(F)c2ccoc12)C1(C[C@H](O)CO)CC1` (single isomer, unassigned) [실시예 1A] were, in that order, 2 ± 0.25 nM, 13.4 nM, 6.4 nM and “증진된 PK-파라미터”.
As to `O=S(=O)(Nc1c(Nc2ccc(I)cc2F)c(F)c(F)c2ccoc12)C1(CC(O)CO)CC1` (racemic) [실시예 1, 1-(2,3-디히드록시-프로필)-시클로프로판술폰산 [4,5-디플루오로-6-(2-플루오로-4-아이오도-페닐아미노)-벤조푸란-7-일]아미드], the concentration for half-maximal inhibition (IC50) in series [1] stood at 2.1 ± 0.58 nM. Also, the GI50 in series [2] was determined as 17.6 nM. Further, a half-maximal response in series [3] (EC50) required 12.2 nM.
